Results from patent publication US20260355212A1 (priority 2022, published 2026).
Where two headings read alike, the source gives them in different places.

Columns and labels:
SARS-CoV-2 Mpro = SARS-CoV-2 Mpro (Severe acute respiratory syndrome coronavirus 2, UniProt P0DTD1); test: SARS-CoV-2 Mpro enzymatic inhibition assay (fluorescence); format: biochemical
Procedure: (§1) The hCoV Mpro are cloned, expressed in E. coli and purified by WuXi AppTec Co., Ltd. The substrate are synthesized by Genscript Biotech.
Compounds are 3 fold serially diluted for 10 doses and added to an assay plate (384w format) using ECHO, in duplicate wells. The test concentration of test compounds is defined by sponsor.
(§2) 25 μL of Mpro proteins are added to the assay plates containing compounds, respectively, using Multidrop. The compounds and Mpro proteins are pre-incubated at room temperature for 30 min. Then 5 µL of Mpro substrates are added to the related assay plates, respectively.
(§3) After 60 min incubation at 30° C., the fluorescence signal (RFU) is detected using a microplate reader M2e (SpectraMax) at Ex/Em=340 nm/490 nm.
(§4) The inhibition activity is calculated using the formula below, IC50 values will be calculated using the Inhibition % data.
(§5) IC50 values of compounds are calculated with the GraphPad Prism software using the nonlinear regression model of log(inhibitor) vs. response—Variable slope (four parameters).

HCoV-229E Mpro = HCoV-229E Mpro (Human coronavirus 229E, UniProt P0C6X1); test: HCoV-229E Mpro enzymatic inhibition assay (fluorescence); format: biochemical
Procedure: as §1
(§6) Compounds are 3 fold serially diluted for 10 doses and added to an assay plate (384w format) using ECHO, in duplicate wells. The test concentration of test compounds is defined by sponsor. […] For no inhibition control (ZPE, zero percent effect), DMSO is added.
as §2, with “respectively. Each activity testing point has a relevant background control to normalize the fluorescence interference of compound.” for “respectively.”
as §3, §4
(§7) Inhibition %=[(CPD−BGCPD)−(ZPE−BGZPE)/(HPE−BGHPE)−(ZPE−BGZPE)]×[…] • CPD: Signal of test compounds wells, containing compound+enzyme+substrate. • ZPE: Average of signals of zero percent effective control wells, containing enzyme+substrate, no compound. • HPE: Average of signals of hundred percent effect control wells, containing GC376+enzyme+substrate. • BG: Compound background control wells, containing compound+substrate, no enzyme
as §5

HCoV-HKU1 Mpro = HCoV-HKU1 Mpro (Human coronavirus HKU1, UniProt P0C6X2); test: HCoV-HKU1 Mpro enzymatic inhibition assay (fluorescence); format: biochemical
Procedure: as §1, §6
as §2, with “respectively. Each activity testing point has a relevant background control to normalize the fluorescence interference of compound.” for “respectively.”
as §3, §4, §7, §5

MERS Mpro = MERS Mpro (Middle East respiratory syndrome-related coronavirus, UniProt K9N7C7); test: biochemical; parameters: species or system MERS-CoV
HCoV-NL63 Mpro = HCoV-NL63 Mpro (Human coronavirus NL63, UniProt P0C6X5); test: HCoV-NL63 Mpro enzymatic inhibition assay (fluorescence); format: biochemical
Procedure: as §1, §6
as §2, with “respectively. Each activity testing point has a relevant background control to normalize the fluorescence interference of compound.” for “respectively.”
as §3, §4, §7, §5

HCoV-OC43 Mpro = HCoV-OC43 Mpro (Human coronavirus OC43, UniProt P0C6X6); test: HCoV-OC43 Mpro enzymatic inhibition assay (fluorescence); format: biochemical
Procedure: as §1, §6
as §2, with “respectively. Each activity testing point has a relevant background control to normalize the fluorescence interference of compound.” for “respectively.”
as §3, §4, §7, §5

SARS-CoV-1 Mpro = SARS-CoV-1 Mpro (Severe acute respiratory syndrome coronavirus, UniProt P0C6X7); test: biochemical

Sequence of HCoV-NL63 Mpro (P0C6X5 2940-3242 limits assumed): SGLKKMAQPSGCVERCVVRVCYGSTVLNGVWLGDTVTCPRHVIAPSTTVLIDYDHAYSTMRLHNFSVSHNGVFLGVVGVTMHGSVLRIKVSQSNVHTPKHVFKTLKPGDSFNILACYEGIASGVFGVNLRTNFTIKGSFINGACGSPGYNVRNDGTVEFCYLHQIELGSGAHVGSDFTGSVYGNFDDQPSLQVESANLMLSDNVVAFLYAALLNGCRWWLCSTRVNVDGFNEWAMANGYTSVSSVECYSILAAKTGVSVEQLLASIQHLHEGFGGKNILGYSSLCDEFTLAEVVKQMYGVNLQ
Sequence of MERS Mpro (K9N7C7 3248-3553 limits assumed): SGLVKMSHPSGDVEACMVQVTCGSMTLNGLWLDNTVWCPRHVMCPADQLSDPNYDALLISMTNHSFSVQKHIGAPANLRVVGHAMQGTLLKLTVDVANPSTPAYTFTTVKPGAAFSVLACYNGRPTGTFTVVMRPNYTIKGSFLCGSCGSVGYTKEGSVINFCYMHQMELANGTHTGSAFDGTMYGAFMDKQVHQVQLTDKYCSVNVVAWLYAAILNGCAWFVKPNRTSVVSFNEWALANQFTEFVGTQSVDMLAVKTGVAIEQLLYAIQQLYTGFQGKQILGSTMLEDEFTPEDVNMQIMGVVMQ
Sequence of HCoV-HKU1 Mpro (P0C6X2 3335-3637 limits assumed): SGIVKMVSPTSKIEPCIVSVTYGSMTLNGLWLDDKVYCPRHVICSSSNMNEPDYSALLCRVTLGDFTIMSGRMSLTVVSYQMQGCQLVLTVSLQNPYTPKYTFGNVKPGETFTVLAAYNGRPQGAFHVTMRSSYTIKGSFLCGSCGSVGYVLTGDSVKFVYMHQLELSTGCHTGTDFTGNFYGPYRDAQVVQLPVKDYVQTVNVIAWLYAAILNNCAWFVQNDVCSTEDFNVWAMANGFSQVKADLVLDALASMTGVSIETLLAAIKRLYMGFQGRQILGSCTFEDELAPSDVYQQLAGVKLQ
Sequence of HCoV-OC43 Mpro (P0C6X6 3247-3549 limits assumed): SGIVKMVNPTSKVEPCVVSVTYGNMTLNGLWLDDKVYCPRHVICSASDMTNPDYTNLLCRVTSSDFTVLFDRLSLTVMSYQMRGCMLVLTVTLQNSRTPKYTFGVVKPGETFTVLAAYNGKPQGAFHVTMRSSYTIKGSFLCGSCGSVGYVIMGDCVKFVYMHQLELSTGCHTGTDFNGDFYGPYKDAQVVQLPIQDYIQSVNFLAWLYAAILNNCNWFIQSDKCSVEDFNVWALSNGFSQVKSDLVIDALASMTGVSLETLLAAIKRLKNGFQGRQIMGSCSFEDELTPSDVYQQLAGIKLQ
Sequence of HCoV-229E Mpro (P0C6X1 2966-3267 limits assumed): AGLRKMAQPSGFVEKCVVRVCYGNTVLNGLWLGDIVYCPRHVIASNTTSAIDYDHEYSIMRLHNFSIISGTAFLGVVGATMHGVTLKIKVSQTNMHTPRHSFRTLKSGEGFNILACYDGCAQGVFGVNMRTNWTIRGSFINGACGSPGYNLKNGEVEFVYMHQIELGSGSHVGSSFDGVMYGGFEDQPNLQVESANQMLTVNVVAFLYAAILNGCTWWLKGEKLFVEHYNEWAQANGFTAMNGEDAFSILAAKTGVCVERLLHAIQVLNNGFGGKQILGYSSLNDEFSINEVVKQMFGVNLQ

Compound	IC50 (SARS-CoV-2 Mpro)	IC50 (HCoV-229E Mpro)	IC50 (HCoV-HKU1 Mpro)	IC50 (MERS Mpro)	IC50 (HCoV-NL63 Mpro)	IC50 (HCoV-OC43 Mpro)	IC50 (SARS-CoV-1 Mpro)	IC50 (SARS-CoV-2 Mpro; mean, 25 nM protein, 25 μM substrate, 30 min pre-incubation, 60 min at 30° C., read-out: Mpro_SARS-CoV-2 mean IC50)
O=C[C@H](C[C@@H]1CCNC1=O)NC(=O)[C@@H]1CC2(CC2)CN1C(=O)c1cc2c(F)cccc2[nH]1 [Compound 3, (S)-5-(4-fluoro-1H-indole-2-carbonyl)-N—((S)-1-oxo-3-((S)-2-oxopyrrolidin-3-yl)propan-2-yl)-5-azaspiro[2.4]heptane-6-carboxamide]	10.1 nM	27.4 nM	9.95 nM	110 nM	17.8 nM	25 nM	19.3 nM	–
CC1(C)[C@@H]2[C@@H](C(=O)N[C@H](C=O)C[C@@H]3CCNC3=O)N(C(=O)c3cc4ccc(F)c(F)c4[nH]3)C[C@@H]21 [Compound 4, (1R,2S,5S)-3-(6,7-difluoro-1H-indole-2-carbonyl)-6,6-dimethyl-N—((S)-1-oxo-3-((S)-2-oxopyrrolidin-3-yl)propan-2-yl)-3-azabicyclo[3.1.0]hexane-2-carboxamide]	10.2 nM	28.5 nM	26.8 nM	198 nM	34.4 nM	40.8 nM	23.6 nM	–
CC1(C)[C@@H]2[C@@H](C(=O)N[C@H](C=O)C[C@@H]3CCNC3=O)N(C(=O)c3cc4cccc(Cl)c4[nH]3)C[C@@H]21 [Compound 5, (1R,2S,5S)-3-(7-chloro-1H-indole-2-carbonyl)-6,6-dimethyl-N—((S)-1-oxo-3-((S)-2-oxopyrrolidin-3-yl)propan-2-yl)-3-azabicyclo[3.1.0]hexane-2-carboxamide]	10.5 nM	33.9 nM	22 nM	147 nM	53.5 nM	42.1 nM	22.5 nM	–
CC1(C)[C@@H]2[C@@H](C(=O)N[C@H](C=O)C[C@@H]3CCNC3=O)N(C(=O)c3cc4cccc(F)c4[nH]3)C[C@@H]21 [Compound 6, (1R,2S,5S)-3-(7-fluoro-1H-indole-2-carbonyl)-6,6-dimethyl-N—((S)-1-oxo-3-((S)-2-oxopyrrolidin-3-yl)propan-2-yl)-3-azabicyclo[3.1.0]hexane-2-carboxamide]	10.8 nM	31.1 nM	25.1 nM	168 nM	38.3 nM	38.8 nM	19.5 nM	–
Cc1cccc([C@@H](C)C(=O)N2C[C@H]3[C@@H]([C@H]2C(=O)N[C@H](C=O)C[C@@H]2CCNC2=O)C3(C)C)c1 [Compound 7, (1R,2S,5S)-6,6-dimethyl-N—((S)-1-oxo-3-((S)-2-oxopyrrolidin-3-yl)propan-2-yl)-3-((R)-2-(m-tolyl)propanoyl)-3-azabicyclo[3.1.0]hexane-2-carboxamide]	–	22 nM	9.2 nM	81 nM	33.6 nM	26.6 nM	12.9 nM	11 nM
CC1(C)[C@@H]2[C@@H](C(=O)N[C@H](C=O)C[C@@H]3CCNC3=O)N(C(=O)C3(c4cccc(Cl)c4)CC3)C[C@@H]21 [Compound 8, (1R,2S,5S)-3-(1-(3-chlorophenyl)cyclopropanecarbonyl)-6,6-dimethyl-N—((S)-1-oxo-3-((S)-2-oxopyrrolidin-3-yl)propan-2-yl)-3-azabicyclo[3.1.0]hexane-2-carboxamide]	11.3 nM	21.8 nM	7.74 nM	88.7 nM	37.6 nM	18.9 nM	11.9 nM	–
CC1(C)C[C@@H](C(=O)N[C@H](C=O)C[C@@H]2CCNC2=O)N(C(=O)c2cc3cccc(Cl)c3[nH]2)C1 [Compound 9, (S)-1-(7-chloro-1H-indole-2-carbonyl)-4,4-dimethyl-N—((S)-1-oxo-3—((S)-2-oxopyrrolidin-3-yl)propan-2-yl)pyrrolidine-2-carboxamide]	12.1 nM	30.9 nM	20.5 nM	313 nM	52.3 nM	65.1 nM	37.8 nM	–
